Entries after “also recorded” stand apart in the source; their conditions may differ.

A short description of data set [1]: Storage stability of the crystalline form (colour, infrared spectrum, x-ray diffractogram). It counts as physicochemical. Particulars: for change in colour, Infrared spectrum and X-ray diffractogram on storage: accelerated conditions. An excerpt:
The crystalline Form I of 2-methyl-4-(4-methyl-1-piperazinyl)-10H-thieno[2,3-b][1,5]benzodiazepine of the present invention has a typical x-ray powder diffraction pattern as represented by d (interplanar spacing) values 9.9446, 8.5272, 8.1949, 6.8637, 6.3510, 5.4653, 4.8278, 4.7121, 4.5295, 4.2239, 4.0788, 3.8230, 3.7525, 3.6909, 3.4995, 3.3393, 3.1051, 2.9451, 2.8182, 2.7589, 2.5925, 2.3369, 2.0251, 1.9183; infrared absorbance bands at approximately 1456, 1365, 905, 757, 662 & 604 cm^−1 and a stable colour.

The conditions of data set [2]: cited from earlier work; for colour stability on standing / storage: prior-art material as reported ('382 process Form I; '541 Form II).

For the compound `Cc1cc2c(s1)Nc1ccccc1N=C2N1CCN(C)CC1` [Form I, 2-methyl-4-(4-methyl-1-piperazinyl)-10H-thieno[2,3-b][1,5]benzodiazepine], the “change in colour, Infrared spectrum and X-ray diffractogram on storage” value in data set [1] (40° C. and 75% relative humidity for one month) was “no changes in colour, infra-red spectrum and x-ray diffractogram”; in data set [1] (40° C. and 75% relative humidity for one month, listed as Example 2), “No change in colour, Infrared spectrum (KBr) and X-ray diffractogram”; in data set [1] (75-80° C. for 25 days) it was “no changes in colour, infra-red spectrum and x-ray diffractogram”; in data set [1] (75-80° C. for 25 days, listed as Example 2), “No change in colour, Infrared spectrum (KBr) and X-ray diffractogram”. The “change in colour, infrared spectrum and x-ray diffractogram on storage” value in data set [1] (ambient conditions of storage, about 15° C. to 35° C. and about 40% to 90% RH) was “no change in colour, infrared spectrum and x-ray diffractogram”. In data set [1] (ambient conditions of storage, room temperature for one month), the “change in colour, Infrared spectrum (KBr) and X-ray diffractogram on storage” value was “No change in colour, Infrared spectrum (KBr) and X-ray diffractogram”. For the same compound, in data set [2] (Form I obtained by the '382 process, as reported), the “stability of crystal form” value is given as “metastable”. Further, in data set [2], the “colour stability on standing / storage” value is “colour changes upon storage and exposure to air; also recorded: change its colour on standing”.
Take `Cc1cc2c(s1)Nc1ccccc1N=C2N1CCN(C)CC1` [Form II, olanzapine, reference compound]: the “colour stability on standing / storage” value in data set [2] is given as “satisfactory colour stability”.

Values taken from patent US20030125322A1, “Crystalline form I of 2-methyl-4-(4-methyl-1-piperazinyl) 10H thieno [2,3-b][1,5]benzodiazepine” (SUN PARMACEUTICAL INDUSTRIES LIMITED, priority 2001, published 2003).
